One series concerns the target T1, PTPRJ phosphatase (Homo sapiens, UniProt Q12913).
T1 sequence (Q12913 997-1337 limits assumed): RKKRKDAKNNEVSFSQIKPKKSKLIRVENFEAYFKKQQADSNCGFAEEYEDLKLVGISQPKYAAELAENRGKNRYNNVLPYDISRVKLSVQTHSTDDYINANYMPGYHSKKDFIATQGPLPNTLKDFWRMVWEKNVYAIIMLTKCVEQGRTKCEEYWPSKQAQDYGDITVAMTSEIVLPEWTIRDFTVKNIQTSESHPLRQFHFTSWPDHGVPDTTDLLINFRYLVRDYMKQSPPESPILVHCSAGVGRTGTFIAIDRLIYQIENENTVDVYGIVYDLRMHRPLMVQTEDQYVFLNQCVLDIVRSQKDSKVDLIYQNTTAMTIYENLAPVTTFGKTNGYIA
In words: inhibition of pNPP hydrolysis by recombinant PTPRJ phosphatase. Format: biochemical.

Series [1] concerns the target T2, recombinant human PTPRD phosphatase (Homo sapiens, UniProt P23468).
T2 sequence (P23468 1357-1612 limits assumed): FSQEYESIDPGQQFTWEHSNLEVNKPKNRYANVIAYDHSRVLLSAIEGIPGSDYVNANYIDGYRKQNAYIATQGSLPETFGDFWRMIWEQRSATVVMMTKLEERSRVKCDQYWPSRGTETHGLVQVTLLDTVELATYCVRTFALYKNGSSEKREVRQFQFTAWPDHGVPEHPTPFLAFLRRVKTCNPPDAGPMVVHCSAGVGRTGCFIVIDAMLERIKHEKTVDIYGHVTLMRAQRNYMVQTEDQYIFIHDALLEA
The conditions noted are these: cited from earlier work.

Series [2] deals with PTPRF phosphatase. Particulars: cited from earlier work.
Series [3] deals with T3, PTPRS phosphatase (Homo sapiens, UniProt Q13332).
T3 sequence (Q13332 1393-1648 limits assumed): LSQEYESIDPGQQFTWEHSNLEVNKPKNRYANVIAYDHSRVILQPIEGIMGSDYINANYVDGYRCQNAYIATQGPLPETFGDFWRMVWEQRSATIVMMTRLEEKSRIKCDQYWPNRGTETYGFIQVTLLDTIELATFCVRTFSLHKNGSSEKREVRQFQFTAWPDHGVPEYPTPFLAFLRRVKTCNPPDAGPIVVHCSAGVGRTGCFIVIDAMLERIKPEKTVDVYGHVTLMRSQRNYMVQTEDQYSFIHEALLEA
Particulars: cited from earlier work.

The conditions of series [4]: acute ascending doses or 2-week repeated doses up to 20 mg/kg; cited from earlier work.
In series [5] the target is T2, recombinant human PTPRD phosphatase. Description: inhibition of pNPP hydrolysis by recombinant PTPRD phosphatase.
The target in series [6] is T4, PTPN1 (PTP1B) phosphatase (Homo sapiens, UniProt P18031).
T4 sequence (P18031 1-435): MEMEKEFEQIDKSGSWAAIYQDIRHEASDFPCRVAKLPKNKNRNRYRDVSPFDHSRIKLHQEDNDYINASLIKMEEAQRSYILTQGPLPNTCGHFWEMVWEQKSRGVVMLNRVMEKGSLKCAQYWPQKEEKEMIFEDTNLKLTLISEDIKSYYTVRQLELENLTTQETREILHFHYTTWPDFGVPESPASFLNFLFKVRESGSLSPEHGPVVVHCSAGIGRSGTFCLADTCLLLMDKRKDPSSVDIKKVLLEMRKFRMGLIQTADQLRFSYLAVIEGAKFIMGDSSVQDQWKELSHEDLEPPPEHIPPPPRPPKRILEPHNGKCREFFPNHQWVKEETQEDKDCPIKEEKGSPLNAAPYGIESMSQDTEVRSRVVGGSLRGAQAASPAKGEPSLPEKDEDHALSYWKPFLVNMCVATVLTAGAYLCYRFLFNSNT
In words: inhibition of pNPP hydrolysis by recombinant PTPN1. Format: biochemical.

Series [7] relates to sites of action (and side effects) of most marketed drugs. Description: EUROFINS assays for sites of action of marketed drugs. Particulars: read-out: EC50 at EUROFINS sites of action of marketed drugs; any of these sites.
Series [8] is described as follows: oral tolerability study in mice. On the set-up: species or system wildtype C57BL/6J or PTPRD knockout mice. The conditions noted are these: mouse, in vivo.
Series [9] is described as follows: absorption study, plasma levels in rats. The class given is in vivo. The conditions noted are these: male, Sprague Dawley, rat, 10 mg/kg.
Series [10] relates to other protein tyrosine phosphatases screened. In words: screen at other protein tyrosine phosphatases. The class given is biochemical.
For series [11], the target named is T3, PTPRS phosphatase. Description: inhibition of pNPP hydrolysis by recombinant PTPRS phosphatase. Particulars: relative to 7-BIA. The class given is biochemical.
The test system of series [12] is PTPRF phosphatase. In words: inhibition of pNPP hydrolysis by recombinant PTPRF phosphatase. Format: biochemical. Particulars: relative to 7-BIA.

Each structure is given as a SMILES string.

The source of these data is publication PMC9248268 (Biochemical pharmacology, 2021).

A word on the EC50: it is the midpoint of the concentration-response curve. By half-life is commonly meant the time in which the quantity being followed falls by half. Lower therefore signals fast loss.

In the case of `CCCCOc1cc2c(c(C=O)c1OC)CC(O)OC2=O` (centres unmarked) [compound 1, 7-butoxy illudalic acid analog], the “potency at PTPRJ (in words)” value on PTPRJ phosphatase was “moderate potencies”. Further, in series [1], the “activity at PTPRD phosphatase (in words)” value was “active” and the “potency of inhibition of PTPRD phosphatase dephosphorylation of p-NPP (in words)” value was “good potency”. The “activity at PTPRF phosphatase (in words)” value with PTPRF phosphatase [2] is “active”. In addition, the “activity at PTPRS phosphatase (in words)” value on PTPRS phosphatase [3] is “active”. Besides, in series [4], the “toxicities in mice (in words)” value is “no apparent toxicities”.

Consider `CCCCOc1cc2c(=O)occc2c(C=O)c1OC` [compound 22], for which the “activity at PTPRD (in words)” value in series [5] is on record as “activity was lost”.

Turning to `CCCCOc1cc2c(c(C=O)c1OCC)CC(O)OC2=O` (centres unmarked) [compound 23], the “activity at PTPRD (in words)” value in [5] is recorded as “activity was lost”.

For `CCCCOc1cc2c(c(C=O)c1OCCCC)CC(O)OC2=O` (centres unmarked) [compound 24], in series [5], the “activity at PTPRD (in words)” value is “activity was lost”.

With `COc1cccc(COc2cc3c(c(C=O)c2OC)CC(O)OC3=O)c1` (centres unmarked) [compound 30, 3-Hydroxy-6-methoxy-7-((3-methoxybenzyl)oxy)-1-oxoisochromane-5-carbaldehyde], the “activity at PTPRD (in words)” value in series [5] is “no improvement in PTPRD activity”.

Take `COc1ccccc1COc1cc2c(c(C=O)c1OC)CC(O)OC2=O` (centres unmarked) [compound 31]: in [5], the “activity at PTPRD (in words)” value is given as “no improvement in PTPRD activity”.

For the molecule `COc1c(OCc2ccc(Oc3ccccc3)cc2)cc2c(c1C=O)CC(O)OC2=O` (centres unmarked) [compound 40, 3-Hydroxy-6-methoxy-1-oxo-7-((4-phenoxybenzyl)oxy)isochromane-5-carbaldehyde], the “potency in inhibiting PTPN1/PTP1B (in words)” value in [6] is listed as “relatively high potency”.

With `COc1c(OCC2CCCC2)cc2c(c1C=O)CC(O)OC2=O` (centres unmarked) [compound 58, 7-Cyclopentylmethoxy-3-hydroxy-6-methoxy-1-oxo-isochroman-5-carbaldehyde], the EC50 in series [7] was ≥ 100 µM. The weight lost in series [8] (200 mg/kg) is 1.3 g; in series [8] (400 mg/kg), 3.4 g; in series [8] (600 mg/kg), 1.1 g; in series [8] (1000 mg/kg) it was 9 g. Further, the “greater selectivity for PTPRD vs PTPRJ than 7-BIA” value at PTPRJ phosphatase (relative to 7-BIA) was 3.5 fold. The half-life in series [9] is ~50 min. In addition, the concentration at 30 min in [9] (ip) was 577 ng/g; in series [9] (iv), 92.6 ng/g; in series [9] (po), 82.4 ng/g. Further, the concentration at 120 min came to 10.3 ng/g in [9] (ip) and 24.2 ng/g in [9] (po). Further, the concentration at 240 min in series [9] (ip) turned out to be 1.84 ng/g; in series [9] (iv), 1.03 ng/g; in [9] (po) it was 4.62 ng/g. In [9] (iv), this molecule had a concentration at 5 min of 24600 ng/g. Also, the “potency at other protein tyrosine phosphatases screened (in words)” value in series [10] was “no substantial potency”. Besides, the “greater selectivity for PTPRD vs PTPRS than 7-BIA” value at PTPRS phosphatase [11] is on record as 1.6 fold. For the same molecule, the “greater selectivity for PTPRD vs PTPRF than 7-BIA” value in the series with PTPRF phosphatase [12] was 1.4 fold. Also, the “greater selectivity for PTPRD vs PTPN1/PTP1B than 7-BIA” value in [6] (relative to 7-BIA) was found to be 1.8 fold.
